Legend:
Type in all cases: cell-based
[1] = molecular target: T1, human β3 adrenergic receptor (Homo sapiens, UniProt P13945); assay: cAMP accumulation (SPA) in CHO cells transfected with human β3 adrenergic receptor; details: for EC50: CHO cells expressing human β3-AR, cAMP, 30 min incubation, 10^−9 M to 10^−5 M, read-out: beta-3 EC50; for beta-3 (IA) maximal response relative to isoproterenol: IA = % activity compound / % activity isoproterenol at 10^−5 M, CHO human β3 cells
T1 construct: Full length β3 AR clones (402 amino acids) containing the last 6 amino acids of hβ3— AR are prepared; expressed in transfected cells; host or cells: CHO cells
T1 sequence (P13945 whole entry): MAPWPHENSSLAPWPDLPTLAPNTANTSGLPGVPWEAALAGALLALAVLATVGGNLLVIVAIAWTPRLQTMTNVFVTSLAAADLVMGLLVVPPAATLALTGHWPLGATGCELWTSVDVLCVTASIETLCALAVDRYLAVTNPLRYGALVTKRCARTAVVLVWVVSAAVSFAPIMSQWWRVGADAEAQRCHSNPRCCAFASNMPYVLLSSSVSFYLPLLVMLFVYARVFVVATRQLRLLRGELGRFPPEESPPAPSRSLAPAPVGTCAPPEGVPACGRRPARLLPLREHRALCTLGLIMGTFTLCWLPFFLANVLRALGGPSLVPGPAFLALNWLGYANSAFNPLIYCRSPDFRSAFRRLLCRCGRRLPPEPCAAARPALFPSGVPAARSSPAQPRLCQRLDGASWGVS
Protocol: (§1) The ability of compounds of this invention to treat or inhibit disorders related to insulin resistance or hyperglycemia was established with representative compounds of this invention in the following standard pharmacological test procedures, which measured the binding selectivity to the β1, β2, and β3 adrenergic receptors. Binding to the receptors was measured in Chinese Hamster ovary (CHO) cells that were transfected with adrenergic receptors. The following briefly summarizes the procedures used and results obtained.
Cloning of Human β3-AR Genomic DNA: cDNA was constructed by ligating four polymerase chain reaction (PCR) products using the following primers: an ATG-Narl fragment, sense primer 5′-[…]3′ and anti-sense primer 5′[…]3′; a Narl-Accl fragment, 5′[…]3′ as sense and 5′[…]3′ as anti-sense primer; an Accli-Styl fragment, sense primer 5′[…]3′ and anti-sense primer 5′[…]3′ and a Styl-TAG fragment, with sense primer 5′[…]3′ and anti-sense primer 5′[…]3′. The corresponding primer sequences are described in Mantzoros, C. S., et.al., Diabetes 45: 909-914 (1996). The four fragments are ligated into a pUC 18 plasmid (Gibco-BRL) and sequenced. Full length β3 AR clones (402 amino acids) containing the last 6 amino acids of hβ3— AR are prepared with the β3-βARpcDNA3from ATTC.
(§2) Binding Procedure: Clones expressing receptor levels of 70 to 110 fmoles/mg protein were used in the test procedures. CHO cells were grown in 24-well tissue culture plates in Dulbecco's Modified Eagle Media with 10% fetal bovine serum, MEM non-essential amino acids, Penicillin-Streptompycin and Geneticin. On the day of test procedure, growth medium was replaced with preincubation media (Dulbecco's Modified Eagle Media and incubated for 30 minutes at 37° C. Preincubation medium was replaced with 0.2 ml treatment medium containing DMEM media containing 250 μM IBMX (isobutyl-1-methylxantine) plus 1 mM ascorbic acid with test compound dissolved in DMSO. Test compounds were tested over a concentration range of 10^−9 M to 10^−5 M for β3 cells and 10^−8 to 10^−4 M for β1 and β2 transfected cells. Isoproterenol (10^−5 M) was used as an internal standard for comparison of activity. Cells were incubated at 37° C. on a rocker for 30 min with the β3 cells and 15 min for β1 and β2 cells. Incubation was stopped with the addition of 0.2N HCl and neutralized with 2.5N NaOH. The plates, containing the cells and neutralized media, were stored at −20 degrees celsius until ready to test for cAMP using the SPA test kit (Amersham).
(§3) Data Analysis and Results: Data collected from the SPA test procedure were analyzed as per cent of the maximal isoproterenol response at 10^−5 M. Activity curves were plotted using the SAS statistical and graphics software. EC50 values were generated for each compound and the maximal response (IA) developed for each compound is compared to the maximal response of isoproternol at 10^−5 M from the following formula:
(§4) IA=% activity compound/% activity isoproterenol

[2] = molecular target: T2, human β1-adrenergic receptor (Homo sapiens, UniProt P08588); assay: cAMP accumulation (SPA) in CHO cells transfected with human β1 adrenergic receptor; details: for EC50: CHO cells transfected with human β1-AR, cAMP, 15 min incubation, 10^−8 to 10^−4 M, read-out: beta-1 EC50; for beta-1 (IA) maximal response relative to isoproterenol: IA = % activity compound / % activity isoproterenol at 10^−5 M, CHO human β1 cells
T2 construct: expressed in transfected cells; host or cells: CHO cells
T2 sequence (P08588 whole entry): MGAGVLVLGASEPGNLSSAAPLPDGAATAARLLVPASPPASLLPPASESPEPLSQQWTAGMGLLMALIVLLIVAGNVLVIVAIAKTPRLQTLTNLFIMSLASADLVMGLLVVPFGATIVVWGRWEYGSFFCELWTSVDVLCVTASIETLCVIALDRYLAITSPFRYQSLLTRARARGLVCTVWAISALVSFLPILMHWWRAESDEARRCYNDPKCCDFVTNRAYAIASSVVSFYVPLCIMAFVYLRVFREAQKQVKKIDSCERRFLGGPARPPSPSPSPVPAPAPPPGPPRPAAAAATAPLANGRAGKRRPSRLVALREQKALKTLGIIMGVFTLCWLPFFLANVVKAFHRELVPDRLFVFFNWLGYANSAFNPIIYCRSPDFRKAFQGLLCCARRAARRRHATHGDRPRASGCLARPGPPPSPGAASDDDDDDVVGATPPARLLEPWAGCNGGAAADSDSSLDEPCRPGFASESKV
Protocol: as §1
(§5) Transfection of CHO cells with β1 and β2 adrenergic receptors: CHO cells were transfected with human β1- or β2-adrenergic receptors as described in Tate, K. M., Eur. J. Biochem., 196:357-361 (1991).
as §2, §3, §4

[3] = molecular target: T3, human β2-adrenergic receptor (Homo sapiens, UniProt P07550); assay: cAMP accumulation (SPA) in CHO cells transfected with human β2 adrenergic receptor; details: for EC50: CHO cells transfected with human β2-AR, cAMP, 15 min incubation, 10^−8 to 10^−4 M, read-out: beta-2 EC50; for beta-2 (IA) maximal response relative to isoproterenol: IA = % activity compound / % activity isoproterenol at 10^−5 M, CHO human β2 cells
T3 construct: expressed in transfected cells; host or cells: CHO cells
Protocol: as §1, §5, §2, §3, §4

Molecule	EC50 [1] [nM]	beta-3 (IA) maximal response relative to isoproterenol [1]	EC50 [2] [nM]	beta-1 (IA) maximal response relative to isoproterenol [2]	EC50 [3] [nM]	beta-2 (IA) maximal response relative to isoproterenol [3]
1-(4-{4-[2-Hydroxy-2-(4-hydroxy-3-methanesulfonylmethyl-phenyl)-ethylamino]-piperidin-1-yl}-benzenesulfonylamino)-cyclopentane Carboxylic Acid Ethyl Ester [Example 40]	4	(1.2)	1900	(0.45)	40	(0.31)
1-(4-{4-[2-Hydroxy-2-(4-hydroxy-3-methanesulfonylmethyl-phenyl)ethylamino]-piperidin-1-yl}-benzenesulfonylamino)cyclohexane Carboxylic Acid Ethyl Ester [Example 43]	1	(1)	1280	(0.58)	90	(0.68)
COc1ccc(N(Cc2ccccc2)S(=O)(=O)c2ccc(N3CCC(NCC(O)COc4cccc5[nH]c(=O)[nH]c45)CC3)cc2)cc1OC (stereo not shown) [Example 1, N-Benzyl-N-(3,4-dimethoxy-phenyl)-4-{4-[2-hydroxy-3-(2-oxo-2,3-dihydro-1H-benzoimidazol-4-yloxy)-propylamino]-piperidin-1-yl}-benzenesulfonamide]	17	(0.92)		(0.09)		(0)
CCCCN(Cc1ccccc1)S(=O)(=O)c1ccc(N2CCC(NC[C@H](O)COc3cccc4[nH]c(=O)[nH]c34)CC2)cc1 [Example 2, N-Benzyl-N-butyl-4-{4-[(2S)-2-hydroxy-3-(2-oxo-2,3-dihydro-1H-benzoimidazol-4-yloxy)-propylamino]-piperidin-1-yl}-benzenesulfonamide]	94	(1.1)		(0.16)		(0.03)
CCCCN(Cc1ccccc1)S(=O)(=O)c1ccc(N2CCC(NCC(O)c3ccc(O)c(NS(C)(=O)=O)c3)CC2)cc1 (stereo not shown) [Example 3, N-Benzyl-N-butyl-4-{4-[2-hydroxy-2-(4-hydroxy-3-methanesulfonylamino-phenyl)-ethylamino]-piperidin-1-yl}-benzenesulfonamide]	15	(1.1)	2100	(0.66)	310	(0.59)

The next lines start with the values.

EC50 [1] [nM]	beta-3 (IA) maximal response relative to isoproterenol [1]	EC50 [2] [nM]	beta-1 (IA) maximal response relative to isoproterenol [2]	EC50 [3] [nM]	beta-2 (IA) maximal response relative to isoproterenol [3]	Molecule
21	(0.78)		(0.17)		(0)	O=c1[nH]c2cccc(OCC(O)CNC3CCN(c4ccc(S(=O)(=O)NCc5ccccc5)cc4)CC3)c2[nH]1 (stereo not shown) [Example 4, N-Benzyl-4-{4-[2-hydroxy-3-(2-oxo-2,3-dihydro-1H-benzoimidazol-4-yloxy)-propylamino]-piperidin-1-yl}-benzenesulfonamide]
200	(0.76)					O=S(=O)(NCc1ccccc1)c1ccc(N2CCC(NC[C@H](O)COc3ccc(O)cc3)CC2)cc1 [Example 6, N-Benzyl-4-{4-[(2S)-2-hydroxy-3-(4-hydroxy-phenoxy)-propylamino]-piperidin-1-yl}-benzenesulfonamide]
410	(0.94)					CS(=O)(=O)Nc1cc([C@@H](O)CNC2CCN(c3ccc(S(=O)(=O)N(CC(=O)O)CC(=O)O)cc3)CC2)ccc1O [Example 55, 2-((Carboxymethyl)[(4-{4-[((2R)-2-hydroxy-2-{4-hydroxy-3-[(methylsulfonyl)amino]phenyl)ethyl)amino]-1-piperidinyl}phenyl)sulfonyl]amino}acetic Acid]

From patent US6444685B1, “N-(4-sulfonylaryl)Cyclylamine 2-hydroxyethylamines as beta-3 adrenergic receptor agonists” (Wyeth, priority 2000, dated 2002)
